Test results published in patent US20180000085A1, “USE OF PICOLINAMIDE COMPOUNDS WITH FUNGICIDAL ACTIVITY” (DOW AGROSCIENCES LLC, priority 2014, published 2018).

How the values were obtained:
Zymoseptoria tritici = experiment: Leaf blotch of wheat (SEPTTR) disease control on wheat seedlings; assay type: in vivo; set-up: key to SEPTTR 1DP, HV activity at 100 ppm (% control rating) / SEPTTR 3DC, HV activity at 100 ppm (% control rating) / SEPTTR disease control, 1DP / SEPTTR disease control, 3DC / SEPTTR 1DP disease control rating, HV activity / SEPTTR 3DC disease control rating, HV activity / SEPTTR 3DC, LV activity at 125.1 g/H (% Control rating) / SEPTTR 1DP, LV activity at 125.1 g/H (% Control rating) / SEPTTR 1DP disease control rating, LV activity at 125.1 g/H / SEPTTR 3DC disease control rating, LV activity at 125.1 g/H / SEPTTR 3DC disease control rating, HV activity at 100 ppm / SEPTTR 1DP disease control rating, HV activity at 100 ppm / HV activity at 100 ppm SEPTTR 3DC (disease control rating) / HV activity at 100 ppm SEPTTR 1DP (disease control rating) / LV activity at 125.1 g/H SEPTTR 1DP (disease control rating) / LV activity at 125.1 g/H SEPTTR 3DC (disease control rating): A: > 80; B: ≤ 80; C: Not Tested; D: No Activity Observed in the Reported Assay; settings: low volume application, 125.1 g/H; for SEPTTR 1DP disease control rating, LV activity at 125.1 g/H: 1 day protectant; for SEPTTR 3DC disease control rating, LV activity at 125.1 g/H: 3 day curative
Puccinia triticina = experiment: Wheat brown rust (PUCCRT) disease control on wheat seedlings; assay type: in vivo; set-up: key to PUCCRT 3DC, HV activity at 100 ppm (% control rating) / PUCCRT disease control, 3DC / PUCCRT 1DP disease control rating, HV activity / PUCCRT 3DC disease control rating, HV activity / PUCCRT 3DC, LV activity at 125.1 g/H (% Control rating) / PUCCRT 1DP, LV activity at 125.1 g/H (% Control rating) / PUCCRT 3DC disease control rating, LV activity at 125.1 g/H / PUCCRT 1DP disease control rating, LV activity at 125.1 g/H / PUCCRT 3DC disease control rating, HV activity at 100 ppm / PUCCRT 1DP disease control rating, HV activity at 100 ppm / HV activity at 100 ppm PUCCRT 3DC (disease control rating) / LV activity at 125.1 g/H PUCCRT 1DP (disease control rating) / LV activity at 125.1 g/H PUCCRT 3DC (disease control rating): A: > 80; B: ≤ 80; C: Not Tested; D: No Activity Observed in the Reported Assay; settings: low volume application, 125.1 g/H; for PUCCRT 1DP disease control rating, LV activity at 125.1 g/H: 1 day protectant; for PUCCRT 3DC disease control rating, LV activity at 125.1 g/H: 3 day curative

| Structure (SMILES) | SEPTTR 1DP disease control rating, LV activity at 125.1 g/H (Zymoseptoria tritici) | SEPTTR 3DC disease control rating, LV activity at 125.1 g/H (Zymoseptoria tritici) | PUCCRT 1DP disease control rating, LV activity at 125.1 g/H (Puccinia triticina) | PUCCRT 3DC disease control rating, LV activity at 125.1 g/H (Puccinia triticina) |
| --- | --- | --- | --- | --- |
| COc1ccnc(C(=O)N[C@@H](C)C(=O)O[C@@H](C)[C@H](OCC2CC2)c2cccc(-c3ccccc3)c2)c1OC(C)=O [Cmpd 875] | A (> 80) | A (> 80) | A (> 80) | A (> 80) |
| CC[C@H](OC(=O)[C@H](C)NC(=O)c1nccc(OC)c1OCOC(C)=O)[C@H](Oc1ccccc1)C(C)C [Cmpd 877] | B (≤ 80) | B (≤ 80) | A (> 80) | A (> 80) |
| COc1ccnc(C(=O)N[C@@H](C)C(=O)O[C@@H](C)[C@@H](OCC(C)C)c2ccccc2)c1OC(C)=O [Cmpd 878] | B (≤ 80) | B (≤ 80) | A (> 80) | A (> 80) |
| COc1ccnc(C(=O)N[C@@H](C)C(=O)O[C@@H](C)[C@@H](OCC(C)C)c2ccccc2)c1OCOC(C)=O [Cmpd 880] | B (≤ 80) | B (≤ 80) | A (> 80) | A (> 80) |
| COc1ccnc(C(=O)N[C@@H](C)C(=O)O[C@@H](C)[C@H](OCC2CC2)C2CCCCC2)c1OCOC(C)=O [Cmpd 881] | B (≤ 80) | B (≤ 80) | A (> 80) | A (> 80) |
| COc1ccnc(C(=O)N[C@@H](C)C(=O)O[C@@H](C)[C@H](OCC2CC2)C2CCCCC2)c1OC(C)=O [Cmpd 882] | D | B (≤ 80) | A (> 80) | A (> 80) |
| CCCO[C@@H](c1ccccc1)[C@H](C)OC(=O)[C@H](C)NC(=O)c1nccc(OC)c1OC(C)=O [Cmpd 883] | B (≤ 80) | A (> 80) | A (> 80) | A (> 80) |
| COc1ccnc(C(=O)N[C@@H](C)C(=O)O[C@@H](C)[C@@H](OC)c2ccccc2)c1OC(C)=O [Cmpd 885] | D | B (≤ 80) | D | A (> 80) |
| COc1ccnc(C(=O)N[C@@H](C)C(=O)O[C@@H](C)[C@H](OC)c2ccccc2)c1OC(C)=O [Cmpd 887] | D | A (> 80) | D | A (> 80) |
| COc1ccnc(C(=O)NC(C)C(=O)OC(C)C(Oc2ccccc2)c2ccc(-c3ccccc3)cc2)c1OCOC(C)=O (stereo not drawn) [Cmpd 905] | A (> 80) | A (> 80) | A (> 80) | B (≤ 80) |
| COc1ccnc(C(=O)NC(C)C(=O)OC(C)C(Oc2ccccc2)C2CCCCC2)c1OCOC(C)=O (stereo not drawn) [Cmpd 907] | B (≤ 80) | B (≤ 80) | A (> 80) | B (≤ 80) |
| COc1ccnc(C(=O)NC(C)C(=O)OC(C)C(Oc2ccc(C)cc2Cl)C2CCCC2)c1OCOC(C)=O (stereo not drawn) [Cmpd 913] | D | B (≤ 80) | A (> 80) | B (≤ 80) |
